From ChEMBL document CHEMBL5380812, “Structural Dynamics-Driven Discovery of Anticancer and Antimetastatic Effects of Diltiazem and Glibenclamide Targeting Urokinase Receptor” (J Med Chem, 2023)
Active and inactive are the calls of the source. The calls are words filed in the database; no cut-off is given here.

How the values were obtained:
[1] = test system: Urokinase plasminogen activator surface receptor (Homo sapiens), Q03405 [UNDEFINED MUTATION]; details: dose 100.0 µM
Description: Binding affinity to uPAR H47C/N259C (unknown origin) mutant assessed as response unit at 100 uM by surface plasmon resonance (SPR) analysis relative to control

[2] = target: Urokinase plasminogen activator surface receptor (Homo sapiens, UniProt Q03405, H47C/N259C); experiment: Binding affinity to uPAR H47C/N259C (unknown origin) mutant assessed as equilibrium dissociation constant by surface plasmon resonance (SPR) analysis relative to control
Sequence of Urokinase plasminogen activator surface receptor (Q03405 23-305 H69C/N281C limits assumed): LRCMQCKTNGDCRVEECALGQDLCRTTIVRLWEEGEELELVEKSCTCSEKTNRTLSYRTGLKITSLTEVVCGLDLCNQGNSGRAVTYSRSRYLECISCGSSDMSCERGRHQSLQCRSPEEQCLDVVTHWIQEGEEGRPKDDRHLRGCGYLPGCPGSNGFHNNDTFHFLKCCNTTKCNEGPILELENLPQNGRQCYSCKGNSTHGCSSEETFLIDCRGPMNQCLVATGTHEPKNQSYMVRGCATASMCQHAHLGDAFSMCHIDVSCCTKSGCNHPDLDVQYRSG

[3] = test system: Caco-2; experiment: Antiinvasive activity against uPAR-negative human Caco-2 cells assessed as inhibition of invasive property at upto 100 uM incubated for 24 hrs by Crystal violet staining based - Transwell assay; type: functional, cell-based
[4] = test system: CT26; experiment: In vivo antimetastatic activity against mouse CT-26-muPAR-mCherry cells intravenously homografted in Balb/c mouse lung metastatic model assessed as suppression of hyperplasia-induced lung weight increase at 30 to 100 to 300 mg/kg, po every two days for 15 days; type: functional, organism-based; details: dose 100-300 mg/kg, time 15.0 day
[5] = test system: PC-3; experiment: Inhibition of cell migration in human PC-3 cells assessed as wound healing measured upto 100 uM; type: cell-based
[6] = test system: CT26; experiment: In vivo antimetastatic activity against mouse CT-26-muPAR-mCherry cells intravenously homografted in Balb/c mouse lung metastatic model assessed as suppression of metastases of cancer cells around vessels at 300 mg/kg, po every two days for 15 days by histopathological analysis; type: functional, organism-based; details: time 15.0 day
[7] = test system: PC-3; experiment: Antiinvasive activity against human PC-3 cells expressing high uPAR assessed as inhibition of invasive property incubated for 24 hrs by Crystal violet staining based - Transwell assay; type: functional, cell-based; details: dose 0-100 µM
[8] = test system: PC-3; experiment: Cytotoxicity against human PC-3 cells assessed as survival rate without matrigel at upto 100 uM; type: toxicity, cell-based; details: pc-3, 100 µM
[9] = test system: PC-3; experiment: Antiinvasive activity against human PC-3 cells expressing high uPAR assessed as inhibition of invasive property without matrigel at upto 100 uM incubated for 24 hrs by crystal violet staining based - Transwell assay; type: functional, cell-based
[10] = test system: CT26; experiment: In vivo antitumor activity against CT26 cells subcutaneously homografted in Balb/c mouse model assessed as tumor weight at 300 mg/kg, po every two days for 14 days relative to control; type: functional; details: CT26, 336 h, time 14 day
[11] = Inhibition of human recombinant […]/uPAR (unknown origin) interaction measured after 2 hrs by ELISA
[12] = test system: HEK-293T; experiment: Antimetastatic activity against uPAR-overexpressing HEK293T cells assessed as suppression of invasive property incubated for 24 hrs by Crystal violet staining based - Transwell assay; type: functional, cell-based; details: Homo sapiens, dose 0-100 µM
[13] = test system: CT26; experiment: In vivo antimetastatic activity against mouse CT-26-muPAR-mCherry cells intravenously homografted in Balb/c mouse lung metastatic model assessed as suppression of hyperplastic nodules on the pleural surface in lung at 100 to 300 mg/kg, po every two days for 15 days; type: functional, organism-based; details: dose 100-300 mg/kg, time 15.0 day
[14] = test system: HUVEC; experiment: Antiangiogenic activity against HUVEC cells assessed as inhibition of formation of capillary-like polygons/fork-like branches in serum free medium at 100 uM; type: functional, cell-based; details: Homo sapiens
[15] = test system: CT26; experiment: Antiinvasive activity against mouse CT26 cells assessed as suppression of invasive property incubated for 24 hrs by Crystal violet staining based - Transwell assay; type: functional, cell-based; details: dose 0-100 µM
[16] = test system: MDA-MB-231; experiment: Antiinvasive activity against human MDA-MB-231 cells expressing moderate uPAR assessed as inhibition of invasive property at upto 100 uM incubated for 24 hrs by Crystal violet staining based - Transwell assay; type: functional, cell-based
[17] = test system: CT26; experiment: In vivo antimetastatic activity against mouse CT26-muPAR-mCherry cells intravenously homografted in Balb/c mouse lung metastatic model assessed as suppression of mCherry fluorescence in lung at 100 mg/kg, po every two days for 15 days relative to control; type: functional; details: time 15 day
[18] = test system: MCF7; experiment: Antiinvasive activity against short hairpin RNA sequence of uPA containing vector transfected human MCF7-shuPA cells assessed as suppression of invasive property at upto 100 uM incubated for 24 hrs by Crystal violet staining based - Transwell assay; type: functional, cell-based
[19] = test system: CT26; experiment: In vivo antitumor activity against mouse CT26 cells subcutaneously homografted in Balb/c mouse model assessed as suppression of tumor growth at 300 mg/kg, po every two days for 14 days; type: functional, organism-based; details: time 14.0 day
[20] = Toxicity in Balb/c mouse homografted with mouse CT26 cells assessed as body weight at 300 mg/kg, po every two days for 14 days; type: organism-based; details: in vivo, 336 h, time 14 day
[21] = test system: CT26; experiment: Antiinvasive activity against mouse CT26-muPAR-mCherry cells assessed as suppression of invasive property incubated for 24 hrs by Crystal violet staining based - Transwell assay; type: functional, cell-based; details: dose 0-100 µM
[22] = test system: MCF7; experiment: Antiinvasive activity against empty vector transfected human MCF7 cells assessed as suppression of invasive property at upto 100 uM incubated for 24 hrs by Crystal violet staining based - Transwell assay; type: functional, cell-based
[23] = test system: CT26; experiment: In vivo antimetastatic activity against mouse CT26-muPAR-mCherry cells intravenously homografted in Balb/c mouse lung metastatic model assessed as suppression of mCherry fluorescence in lung at 300 mg/kg, po every two days for 15 days relative to control; type: functional; details: time 15 day
[24] = Toxicity in Balb/c mouse homografted with mouse CT-26-muPAR-mCherry cells assessed as adverse effect at 300 mg/kg, po every two days for 15 days; type: organism-based; details: in vivo, 360 h, time 15 day
[25] = Toxicity in Balb/c mouse homografted with mouse CT-26-muPAR-mCherry cells assessed as adverse effect at 100 mg/kg, po every two days for 15 days; type: organism-based; details: in vivo, 360 h, time 15 day
[26] = test system: CT26; experiment: In vivo antimetastatic activity against mouse CT-26-muPAR-mCherry cells intravenously homografted in Balb/c mouse lung metastatic model assessed as suppression of metastases of cancer cells around vessels at 100 mg/kg, po every two days for 15 days by histopathological analysis; type: functional, organism-based; details: time 15.0 day
[27] = Toxicity in Balb/c mouse homografted with mouse CT-26-muPAR-mCherry cells assessed as vascular hyperemia at 100 mg/kg, po every two days for 15 days; type: organism-based; details: in vivo, 360 h, time 15 day
[28] = Toxicity in Balb/c mouse homografted with mouse CT26 cells assessed as body weight at 100 mg/kg, po every two days for 14 days; type: organism-based; details: in vivo, 336 h, time 14 day
[29] = test system: CT26; experiment: In vivo antitumor activity against mouse CT26 cells subcutaneously homografted in Balb/c mouse model assessed as suppression of tumor growth at 100 mg/kg, po every two days for 14 days; type: functional, organism-based; details: time 14.0 day
[30] = test system: CT26; experiment: In vivo antimetastatic activity against mouse CT26-muPAR-mCherry cells intravenously homografted in Balb/c mouse lung metastatic model assessed as suppression of mCherry fluorescence in lung at 30 mg/kg, po every two days for 15 days relative to control; type: functional; details: time 15 day
[31] = test system: CT26; experiment: In vivo antitumor activity against mouse CT26 cells subcutaneously homografted in Balb/c mouse model assessed as tumor weight at 100 mg/kg, po every two days for 14 days relative to control; type: functional; details: CT26, 336 h, time 14 day
[32] = test system: CT26; experiment: In vivo antimetastatic activity against mouse CT-26-muPAR-mCherry cells intravenously homografted in Balb/c mouse lung metastatic model assessed as suppression of hyperplastic nodules on the pleural surface in lung at 30 to 100 mg/kg, po every two days for 15 days; type: functional, organism-based; details: dose 30-100 mg/kg, time 15.0 day
[33] = test system: CT26; experiment: In vivo antimetastatic activity against mouse CT-26-muPAR-mCherry cells intravenously homografted in Balb/c mouse lung metastatic model assessed as suppression of hyperplasia-induced lung weight increase at 30 to 100 mg/kg, po every two days for 15 days; type: functional, organism-based; details: dose 30-100 mg/kg, time 15.0 day

Sequence of Urokinase plasminogen activator surface receptor (Homo sapiens), Q03405 [UNDEFINED MUTATION] (Q03405 whole entry, looked up, stated change not applied): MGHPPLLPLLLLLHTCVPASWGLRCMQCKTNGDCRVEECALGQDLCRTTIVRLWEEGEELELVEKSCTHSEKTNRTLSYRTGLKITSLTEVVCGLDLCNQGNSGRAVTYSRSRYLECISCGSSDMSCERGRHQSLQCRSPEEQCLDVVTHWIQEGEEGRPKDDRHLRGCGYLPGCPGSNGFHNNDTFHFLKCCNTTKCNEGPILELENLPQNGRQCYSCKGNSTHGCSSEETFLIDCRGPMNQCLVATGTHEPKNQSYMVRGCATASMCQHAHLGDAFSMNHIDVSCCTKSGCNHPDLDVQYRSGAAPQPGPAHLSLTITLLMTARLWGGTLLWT

`CC(C)(C)c1ccc(C(=O)CCCN2CCC(OC(c3ccccc3)c3ccccc3)CC2)cc1` showed an RU [1] of 1.5.
With `CN/C(=N\CCSCc1nc[nH]c1C)NC#N` the RU [1] was -3.
In the case of `CCCCC1C(=O)N(c2ccccc2)N(c2ccccc2)C1=O`, the RU [1] is reported as 2.7.
Work on `CN(C)CCCC1(c2ccc(F)cc2)OCc2cc(C#N)ccc21` (centres undefined) yielded an RU [1] of 7.
`O=C(O)c1cccnc1Nc1cccc(C(F)(F)F)c1` gave an RU [1] of 7.
In the case of `CC(=O)OCC(CCn1cnc2cnc(N)nc21)COC(C)=O`, the RU [1] is reported as -4.
Work on `O=C(O)CCc1nc(-c2ccccc2)c(-c2ccccc2)o1` [OXAPROZIN] yielded an RU [1] of 20 and a Kd [2] of 114 µM.
Molecule `CCN(CC)CCCC(C)Nc1c2ccc(Cl)cc2nc2ccc(OC)cc12` (centres undefined) has an RU [1] of 20.
Molecule `CNC(=C[N+](=O)[O-])NCCSCc1ccc(CN(C)C)o1` has an RU [1] of 0.
For `O=C(CCCN1CCC(O)(c2ccc(Cl)cc2)CC1)c1ccc(F)cc1` [HALOPERIDOL], the RU [1] was 10 and the Kd [2] was 41.2 µM.
In the case of `NC(CO)C(=O)NNCc1ccc(O)c(O)c1O` (centres undefined), the RU [1] is reported as 0.
`O=C(/C=C/c1ccc(O)c(O)c1)OCCc1ccccc1` showed an RU [1] of 8.
`CCc1c(C)[nH]c2c1C(=O)CC(CN1CCOCC1)C2` (centres undefined) gave an RU [1] of 11.
For `CCCCCOC(=O)Nc1nc(=O)n([C@@H]2O[C@@H](O)[C@@H](O)[C@H]2O)cc1F`, the RU [1] was 1.
Molecule `CNCC(O)c1ccc(O)cc1` (centres undefined) has an RU [1] of 0.5.
Work on `COC(=O)[C@@H](N)CCCNC(=N)N[N+](=O)[O-]` yielded an RU [1] of 0.
`COc1ccc(CN(CCN(C)C)c2ccccc2)cc1` gave an RU [1] of 1.7.
For `COc1ccc(Cl)cc1C(=O)NCCc1ccc(S(=O)(=O)NC(=O)NC2CCCCC2)cc1` [GLYBURIDE], the Activity [3] was “inactive”, the Activity [4] was “Active” and the Activity [5] was “Active”. The Activity [6] was “Active”, the Activity [7] was “Dose-Dependent Effect” and the Activity [8] was “Non-Toxic”. The RU [1] was 33, the Activity [9] was “Active” and the inhibition in vivo at 300 mg/kg [10] was 62.8%. The IC50 [11] was 69.5 µM, the Activity [12] was “Dose-Dependent Effect” and the Activity [13] was “Active”. For the same molecule, the Kd [2] was 40.4 µM, the Activity [14] was “Active” and the Activity [15] was “Dose-Dependent Effect”. For the same molecule, the Activity [16] was “Active”, the Activity [17] was 70% and the Activity [18] was “Active”. For the same molecule, the Activity [19] was “Active”, the Activity [20] was “Non-Toxic” and the Activity [21] was “Dose-Dependent Effect”. For the same molecule, the Activity [22] was “Active”, the Activity [23] was 83% and the Activity [24] was “Non-Toxic”.
Work on `CNCCCC12CCC(c3ccccc31)c1ccccc12` [MAPROTILINE] yielded an RU [1] of 13 and a Kd [2] of 79.7 µM.
For `CC(CCc1ccc(O)cc1)NCCc1ccc(O)c(O)c1` (centres undefined), the RU [1] was 5.5.
In the case of `Cc1ccc(S(=O)(=O)N[C@@H](CCCCN)C(=O)CCl)cc1`, the RU [1] is reported as 0.
Work on `CCN[C@H]1CN(CCCOC)S(=O)(=O)c2sc(S(N)(=O)=O)cc21` yielded an RU [1] of -1.
For `CCOC(=O)Nc1ccc(NCc2ccc(F)cc2)nc1N`, the RU [1] was 15.
In the case of `O=C1CC2(CCCC2)CC(=O)N1CCCCN1CCN(c2ncccn2)CC1`, the RU [1] is reported as 1.
For `COc1ccc([C@@H]2Sc3ccccc3N(CCN(C)C)C(=O)[C@@H]2OC(C)=O)cc1` [DILTIAZEM], the Activity [3] was “inactive”, the Activity [25] was “Non-Toxic” and the Activity [5] was “Active”. For the same molecule, the Activity [7] was “Dose-Dependent Effect”, the Activity [8] was “Non-Toxic” and the Activity [26] was “Active”. For the same molecule, the RU [1] was 12, the Activity [27] was “Toxic” and the Activity [9] was “Active”. The Activity [28] was “Non-Toxic”, the IC50 [11] was 58.6 µM and the Activity [12] was “Dose-Dependent Effect”. For the same molecule, the Kd [2] was 39.2 µM, the Activity [14] was “Active” and the Activity [15] was “Dose-Dependent Effect”. The Activity [29] was “Active”, the Activity [30] was 61% and the inhibition in vivo at 100 mg/kg [31] was 73.2%. The Activity [16] was “Active”, the Activity [17] was 76% and the Activity [32] was “Active”. The Activity [18] was “Active”, the Activity [33] was “Active” and the Activity [21] was “Dose-Dependent Effect”. The Activity [22] was “Active”.
`CN(C)CCC=C1c2ccccc2CCc2ccccc21` showed an RU [1] of 11.
Work on `CCc1c(C)[nH]c2c1C(=O)C(CN1CCOCC1)CC2` (centres undefined) yielded an RU [1] of 8.
In the case of `CC(C)=CCOc1c2occc2cc2ccc(=O)oc12`, the RU [1] is reported as 1.
For `CCN(CC)CCOC(=O)c1ccc(N)cc1`, the RU [1] was 17.
